Measured values published in ChEMBL document CHEMBL1287808, “Synthesis and anti-HCV activity of a new 2'-deoxy-2'-fluoro-2'-C-methyl nucleoside analogue” (Bioorg Med Chem Lett, 2010).
Values after ≈ are worked out from the molar mass of the structure shown. Active and inactive are the calls of the source. The calls are words filed in the database; no cut-off is given here.

Assays:
Hepatitis C virus [1] = assay: Antiviral activity against Hepatitis C virus infected in HEK293 cell expressing sip-L protein; format: functional, organism-based, Hepacivirus hominis
Hepatitis C virus [2] = assay: Antiviral activity against Hepatitis C virus infected in HEK293 cell expressing sip-L protein assessed viral RNA level; format: functional, organism-based, Hepacivirus hominis
Hepatitis C virus [3] = assay: Antiviral activity against Hepatitis C virus infected in Ava5 cell assessed as suppression of HCV replication at 0.6 ug/ml; format: functional, organism-based; conditions: Hepacivirus hominis
Hepatitis C virus [4] = assay: Antiviral activity against Hepatitis C virus infected in Ava5 cell assessed as suppression of HCV replication at 6 ug/ml; format: functional, organism-based; conditions: Hepacivirus hominis
Hepatitis C virus [5] = assay: Antiviral activity against Hepatitis C virus infected in Ava5 cell assessed as suppression of HCV replication at 0.06 ug/ml; format: functional, organism-based; conditions: Hepacivirus hominis

C[C@@]1(F)[C@H](O)[C@@H](CO)O[C@H]1n1cc(F)c2c(N)ncnc21
IC50 (Hepatitis C virus [1]): 350 µg/mL (≈ 1170 µM) | EC50 (Hepatitis C virus [2]): 0.8 µg/mL (≈ 2.66 µM) | Activity (Hepatitis C virus [3]): Active | Activity (Hepatitis C virus [4]): Active | Activity (Hepatitis C virus [5]): inactive
